Values after ≈ are worked out from the molar mass of the structure shown.
Experiments:
[1] = system: Staphylococcus aureus-SMITH (GC 4543); assay: acute lethal infection in mice; format: in vivo; settings: acute lethal infection, female CD-1 mice, intraperitoneal challenge, intravenous 30 min. after infection, 7 day survival
Experimental: Methods for in Vivo Antibacterial Evaluation
The therapeutic effects of glycopeptide antibiotics of Formula I are determined against acute lethal infections with S. aureus (strain Smith), a penicillin resistant strain of S. pneumoniae (strain GC 1894), and a vancomycin resistant strain of E. fecalis (strain GC 6189 and GC 2246). Female mice, CD-1 (Charles River Laboratories), 20+/−2 gm, are challenged by intraperitoneal injection of sufficient bacteria (suspended in /trypticase Soy Broth or hog gastric mucin) to kill non-treated controls within 24-48 hr. Antibacterial agents, contained in 0.2 mL of saline or 5% dextrose solution, are administered intravenously 30 min. after infection. Five mice are treated at each dose level. The 7 day survival ratios from 3 separate tests are pooled for calculation of median effective dose (ED50).

[2] = system: Escherichia coli; assay: in vitro antibacterial evaluation, MIC by broth dilution; format: cell-based
How it was run: (§1)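 MIC, the lowest antibiotic concentration preventing growth, was read across 64-0.06 μg/mL with 5×10^5 CFU/mL inoculum. Method followed NCCLS M7-A2 broth dilution using Mueller-Hinton II; Gram-positive strains covered recent methicillin-, penicillin- and/or vancomycin-resistant clinical isolates.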

[3] = system: Streptococcus sp.; assay: as above; format: cell-based; settings: broth dilution, 18 hours at 35° C.
How it was run: as §1

[4] = system: Staphylococcus sp.; assay: as above; format: cell-based; settings: broth dilution, 18 hours at 35° C.; for MIC Staphylococcus aureus (GC 1131): strain GC 1131
How it was run: as §1

[5] = system: Enterococcus sp.; assay: as above; format: cell-based; settings: broth dilution, 18 hours at 35° C.; for MIC Enterococcus faecalis (ATCC 29212): strain ATCC 29212; for MIC Enterococcus faecium (GC 2243): strain GC 2243; for MIC Enterococcus faecalis (GC 4552): strain GC 4552; for MIC Enterococcus faecalis (GC 4553): strain GC 4553; for MIC Enterococcus faecalis (GC 4554): strain GC 4554; for MIC Enterococcus faecium (GC 4556): strain GC 4556; for MIC Enterococcus faecium (GC 4557): strain GC 4557; for MIC Enterococcus avium (GC 4558): strain GC 4558; for MIC Enterococcus faecalis (GC 6189): strain GC 6189
How it was run: as §1

CC(c1ccccc1)C1NC(=O)CNC(=O)C(CO)NC(=O)C(C(O)C2CNC(=N)N2C2OC(CO)C(O)C(O)C2O)NC(=O)C(C(O)C2CNC(=N)N2)NC(=O)C(Cc2ccc(OC3OC(CO)C(OC4OC5COC(c6cccc(-c7ccccc7)c6)OC5C(O)C4O)C(O)C3O)cc2)NC1=O (stereo not drawn) [Example 154, Cyclo[glycyl-β-methylphenylalanyl-O-[4-O-[4,6-O-(3-phenylbenzylidene)hexopyranosyl]-hexopyranosyl]tyrosyl-3-(2-iminoimidazolidin-4-yl)seryl-3-(3-hexopyranosyl-2-iminoimidazolidin-4-yl)serylseryl]]
median effective dose (ED50), Staphylococcus aureus-SMITH (GC 4543) [1]: 0.1 mg/kg | MIC Escherichia coli (ATCC 25922) ([2]; strain ATCC 25922, 18 hours at 35° C.): 32 µg/mL (≈ 21.9 µM) | MIC Escherichia coli (GC 4559) ([2]; strain GC 4559, 18 hours at 35° C.): 32 µg/mL (≈ 21.9 µM) | MIC Escherichia coli (GC 4560) ([2]; strain GC 4560, 18 hours at 35° C.): 2 µg/mL (≈ 1.37 µM) | MIC Streptococcus agalactiae (GC 4564) ([3]; Streptococcus agalactiae (GC 4564)): <0.06 µg/mL | MIC Streptococcus pneumoniae (ATCC 6301) ([3]; Streptococcus pneumoniae (ATCC 6301)): <0.06 µg/mL | MIC Streptococcus pneumoniae (GC 1894) ([3]; Streptococcus pneumoniae (GC 1894)): <0.06 µg/mL | MIC Streptococcus pneumoniae (GC 4565) ([3]; Streptococcus pneumoniae (GC 4565)): <0.06 µg/mL | MIC Streptococcus pyogenes (GC 4563) ([3]; Streptococcus pyogenes (GC 4563)): <0.06 µg/mL | MIC Streptococcus pneumoniae (ATCC 6301) ([3]; strain ATCC 6301): <0.06 µg/mL | MIC Streptococcus pneumoniae (GC 1894) ([3]; strain GC 1894): <0.06 µg/mL | MIC Streptococcus pyogenes (GC 4563) ([3]; strain GC 4563): <0.06 µg/mL | MIC Streptococcus agalactiae (GC 4564) ([3]; strain GC 4564): <0.06 µg/mL | MIC Streptococcus pneumoniae (GC 4565) ([3]; strain GC 4565): <0.06 µg/mL | MIC Staphylococcus aureus (GC 1131) ([4]; inoculum 5×10^5 CFU/mL): 1 µg/mL (≈ 0.685 µM) | MIC Staphylococcus aureus (ATCC 29213) ([4]; strain ATCC 29213): 1 µg/mL (≈ 0.685 µM) | MIC Staphylococcus aureus (GC 1131) [4]: 1 µg/mL (≈ 0.685 µM) | MIC Staphylococcus aureus (GC 3051) ([4]; strain GC 3051): 1 µg/mL (≈ 0.685 µM) | MIC Staphylococcus aureus (GC 3053) ([4]; strain GC 3053): 2 µg/mL (≈ 1.37 µM) | MIC Staphylococcus aureus (GC 4541) ([4]; strain GC 4541): 1 µg/mL (≈ 0.685 µM) | MIC Staphylococcus aureus (GC 4542) ([4]; strain GC 4542): 1 µg/mL (≈ 0.685 µM) | MIC Staphylococcus aureus-SMITH (GC 4543) ([4]; strain GC 4543): 1 µg/mL (≈ 0.685 µM) | MIC Staphylococcus aureus (GC 4544) ([4]; strain GC 4544): 2 µg/mL (≈ 1.37 µM) | MIC Staphylococcus aureus (GC 4545) ([4]; strain GC 4545): 1 µg/mL (≈ 0.685 µM) | MIC Staphylococcus haemolyticus (GC 4546) ([4]; strain GC 4546): 1 µg/mL (≈ 0.685 µM) | MIC Coagulase Negative Staphylococcus (GC 4547) ([4]; strain GC 4547): 2 µg/mL (≈ 1.37 µM) | MIC Coagulase Negative Staphylococcus (GC 4548) ([4]; strain GC 4548): 0.5 µg/mL (≈ 0.343 µM) | MIC Coagulase Negative Staphylococcus (GC 4549) ([4]; strain GC 4549): 0.25 µg/mL (≈ 0.171 µM) | MIC Coagulase Negative Staphylococcus (GC 4551) ([4]; strain GC 4551): 2 µg/mL (≈ 1.37 µM) | MIC Coagulase Negative Staphylococcus (GC 6257) ([4]; strain GC 6257): 1 µg/mL (≈ 0.685 µM) | MIC Staphylococcus aureus-SMITH (GC 4543) ([4]; strain SMITH GC 4543): 1 µg/mL (≈ 0.685 µM) | MIC Enterococcus faecalis (GC 2242) ([5]; Enterococcus faecalis (GC 2242)): 2 µg/mL (≈ 1.37 µM) | MIC Enterococcus faecalis (GC 2691) ([5]; Enterococcus faecalis (GC 2691)): 2 µg/mL (≈ 1.37 µM) | MIC Enterococcus faecalis (GC 3059) ([5]; Enterococcus faecalis (GC 3059)): 2 µg/mL (≈ 1.37 µM) | MIC Enterococcus faecalis (ATCC 29212) ([5]; inoculum 5×10^5 CFU/mL): 2 µg/mL (≈ 1.37 µM) | MIC Enterococcus faecium (GC 2243) ([5]; inoculum 5×10^5 CFU/mL): 2 µg/mL (≈ 1.37 µM) | MIC Enterococcus faecalis (GC 4552) ([5]; inoculum 5×10^5 CFU/mL): 2 µg/mL (≈ 1.37 µM) | MIC Enterococcus faecalis (GC 4553) ([5]; inoculum 5×10^5 CFU/mL): 2 µg/mL (≈ 1.37 µM) | MIC Enterococcus faecalis (GC 4554) ([5]; inoculum 5×10^5 CFU/mL): 2 µg/mL (≈ 1.37 µM) | MIC Enterococcus faecium (GC 4556) ([5]; inoculum 5×10^5 CFU/mL): 2 µg/mL (≈ 1.37 µM) | MIC Enterococcus faecium (GC 4557) ([5]; inoculum 5×10^5 CFU/mL): 2 µg/mL (≈ 1.37 µM) | MIC Enterococcus avium (GC 4558) ([5]; inoculum 5×10^5 CFU/mL): 1 µg/mL (≈ 0.685 µM) | MIC Enterococcus faecalis (GC 6189) ([5]; inoculum 5×10^5 CFU/mL): 2 µg/mL (≈ 1.37 µM) | MIC Enterococcus faecalis (ATCC 29212) [5]: 2 µg/mL (≈ 1.37 µM) | MIC Enterococcus faecalis (GC 2242) ([5]; strain GC 2242): 2 µg/mL (≈ 1.37 µM) | MIC Enterococcus faecium (GC 2243) [5]: 2 µg/mL (≈ 1.37 µM) | MIC Enterococcus faecalis (GC 2691) ([5]; strain GC 2691): 2 µg/mL (≈ 1.37 µM) | MIC Enterococcus faecalis (GC 3059) ([5]; strain GC 3059): 2 µg/mL (≈ 1.37 µM) | MIC Enterococcus faecalis (GC 4552) [5]: 2 µg/mL (≈ 1.37 µM) | MIC Enterococcus faecalis (GC 4553) [5]: 2 µg/mL (≈ 1.37 µM) | MIC Enterococcus faecalis (GC 4554) [5]: 2 µg/mL (≈ 1.37 µM) | MIC Enterococcus faecium (GC 4556) [5]: 2 µg/mL (≈ 1.37 µM) | MIC Enterococcus faecium (GC 4557) [5]: 2 µg/mL (≈ 1.37 µM) | MIC Enterococcus avium (GC 4558) [5]: 1 µg/mL (≈ 0.685 µM) | MIC Enterococcus faecalis (GC 6189) [5]: 2 µg/mL (≈ 1.37 µM)

— patent US6914045B2, “Glycopeptide antibiotics” (Wyeth Holdings Corporation, priority 2001, dated 2005)
